Results as given in patent US6605424B1, “Method of detecting inhibitors of agonist-specific desensitization” (Duke University, priority 1989, dated 2003).

How the values were obtained:
βAR kinase [1] = target: T1, βAR kinase (Bos taurus, UniProt P21146); assay: βAR kinase inhibition with the βAR as substrate (Example I, data not shown); format: biochemical, bovine
T1 construct: βAR kinase was purified from bovine cerebral cortex; from tissue; host or cells: bovine cerebral cortex
T1 sequence (P21146 1-689): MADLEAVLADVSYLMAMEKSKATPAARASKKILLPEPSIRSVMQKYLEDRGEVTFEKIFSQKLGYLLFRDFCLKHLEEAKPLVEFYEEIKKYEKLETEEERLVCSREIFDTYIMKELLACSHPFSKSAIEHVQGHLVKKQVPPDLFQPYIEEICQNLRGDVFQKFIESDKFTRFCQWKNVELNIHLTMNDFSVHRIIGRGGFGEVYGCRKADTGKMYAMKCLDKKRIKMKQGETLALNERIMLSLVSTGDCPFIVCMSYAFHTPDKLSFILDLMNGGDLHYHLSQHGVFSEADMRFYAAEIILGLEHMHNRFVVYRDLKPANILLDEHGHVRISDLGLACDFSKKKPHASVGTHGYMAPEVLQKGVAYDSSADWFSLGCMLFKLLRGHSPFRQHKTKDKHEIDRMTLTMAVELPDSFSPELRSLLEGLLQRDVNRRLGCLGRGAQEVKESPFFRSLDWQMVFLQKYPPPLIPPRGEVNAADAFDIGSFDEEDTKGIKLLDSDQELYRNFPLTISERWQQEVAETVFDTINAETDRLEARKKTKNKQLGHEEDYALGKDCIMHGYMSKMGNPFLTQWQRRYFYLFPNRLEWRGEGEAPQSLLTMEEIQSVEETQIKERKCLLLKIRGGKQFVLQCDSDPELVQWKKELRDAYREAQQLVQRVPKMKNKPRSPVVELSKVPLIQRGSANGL
Source text: βAR kinase phosphorylates the β2AR, the α2-adrenergic receptor, and rhodopsin in a stimulus-dependent fashion. Rhodopsin was utilized as the substrate in these experiments because of its ease of isolation. However, the inhibitory effects of polyanions observed with βAR kinase-catalyzed phosphorylation of rhodopsin have also been observed using reconstituted β2AR as the substrate.

[2] = test system: β2ARs in permeabilized A431 cells; assay: Phosphorylation of β2ARs in permeabilized A431 cells; format: cell-based, human; conditions: 1 μM heparin
Procedure: FIG. 8. Phosphorylation of β2ARs in permeabilized A431 cells. […] FIG. 8A: Autoradiogram obtained after a 10-day exposure at −70° C. FIG. 8B: Transverse densitometric scan of the autoradiogram.
β2ARs in permeabilized A431 cells were phosphorylated as follows. Permeabilized cells (4×10^8) in 10 ml of KG-A buffer containing 1 mCi (1 Ci=37 GBq) of [γ-^32P]ATP were incubated with or without 1 μM (−)-isoproterenol (and other compounds as indicated) for 10 min at 37° C. All buffers used in these experiments contained 5 μg of soybean tryspin inhibitor, 5 μg of leupeptin, and 10 μg of benzamidine per ml and 0.1 mM phenylmethylsulfonyl fluoride. […] After three identical washing steps, crude membranes were prepared as above.
Aliquots of the samples (≈60 fmol of β2ARs) were desalted over Sephadex G-50 and incubated for 2 hr at 20° C. with 200 pM of the ligand with or without 10 μM alprenolol. Free ligand was removed by desalting as above, and the samples were irradiated with UV light for 3 min. The samples were loaded on the same gel as the samples described above.

βAR kinase [3] = target: T1, βAR kinase; assay: Phosphorylation of rhodopsin (urea-treated rod outer segments) by βAR kinase; format: biochemical, bovine

- IC50 (βAR kinase [1]): ~30 nM
- type of inhibition with respect to ATP (βAR kinase [3]; ATP 33 to 100 μM): mixed type inhibitor
- type of inhibition with respect to rhodopsin (βAR kinase [3]; rhodopsin 3 to 20 μM): competitive inhibitor
Substance: heparin
- effect on basal phosphorylation of β2ARs [2]: not affecting basal phosphorylation
- reduction of isoproterenol-induced phosphorylation of β2ARs ([2]; 1 μM isoproterenol, 10 min, three experiments): 50-80%
